Measured values as given in article PMC4593760 (Nuclear medicine and biology, 2015).

Target: NTR1 (Homo sapiens, UniProt P30989)
Experiment: In vitro competitive binding on HT-29 cells against 177Lu-N1

Chain of NTR1 (P30989 whole entry): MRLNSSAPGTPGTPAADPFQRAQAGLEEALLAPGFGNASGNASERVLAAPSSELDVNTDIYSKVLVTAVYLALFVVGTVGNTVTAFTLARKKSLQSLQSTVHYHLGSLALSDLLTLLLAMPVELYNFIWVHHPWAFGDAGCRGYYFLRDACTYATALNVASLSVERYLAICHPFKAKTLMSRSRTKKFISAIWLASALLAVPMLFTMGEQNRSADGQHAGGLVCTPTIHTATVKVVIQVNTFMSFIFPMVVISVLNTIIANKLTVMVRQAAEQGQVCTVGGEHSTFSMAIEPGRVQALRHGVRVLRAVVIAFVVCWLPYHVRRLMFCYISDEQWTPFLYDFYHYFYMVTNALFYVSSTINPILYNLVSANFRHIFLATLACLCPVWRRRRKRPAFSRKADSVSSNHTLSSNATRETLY

Q: Which IC50 does the source give for `Cc1cc(O)cc(C)c1C[C@H](NC(=O)[C@@H]1CCCN1C(=O)[C@H](CCCNC(=N)N)NC(=O)[C@H](CCCNC(=N)N)N(C)C(=O)[C@@H]1CCCN1C(=O)[C@H](CCCCN)NC(=O)CN1CCN(CC(=O)O)CCN(CC(=O)O)CCN(CC(=O)O)CC1)C(=O)N[C@H](C(=O)N[C@@H](CC(C)C)C(=O)O)C(C)(C)C` [N0, DOTA-Lys-Pro-(N-Me)Arg-Arg-Pro-Dmt-Tle-Leu-OH] here?
A: 52.3 ± 1.5 nM

Q: Which IC50 does the source give for `Cc1cc(O)cc(C)c1C[C@H](NC(=O)[C@@H]1CCCN1C(=O)[C@H](CCCNC(=N)N)NC(=O)[C@H](CCCNC(=N)N)N(C)C(=O)[C@@H]1CCCN1C(=O)[C@H](CCCCN)NC(=O)CCNC(=O)CN1CCN(CC(=O)O)CCN(CC(=O)O)CCN(CC(=O)O)CC1)C(=O)N[C@H](C(=O)N[C@@H](CC(C)C)C(=O)O)C(C)(C)C` [N1, DOTA-β-Ala-Lys-Pro-(N-Me)Arg-Arg-Pro-Dmt-Tle-Leu-OH] here?
A: 27.6 ± 1.3 nM
